Laboratory results published in US12710419B2, “3D sensors for simultaneous detection of bioelectronic and biomechanical signals in tissue” (UNIVERSITY OF MASSACHUSETTS, priority 2022, dated 2026).

Tested on: cardiomyocytes
Test: Drug tests on cultured cardiomyocytes recorded with 3D nanotransistor biosensor (AP and mechanical signals)
Assay type: cell-based, human
Conditions: for amplitude of AP / amplitude of broad peaks (mechanical signal): after adding drug, 20 μM, electrical recording
Protocol: Human embryonic stem cell-derived cardiomyocytes (hESC-CMs), which are considered promising in vitro models of cardiac health and disease, were cultured on the device substrate.
As part of experimental trials, drug tests were performed to further reveal the potential of implementing the sensors in pharmacological and pathological studies on cells. Blebbistatin, an inhibitor of myosin essential for motile machinery, was used to suppress cell contraction, as shown in FIG. 3A.
Conversely, lidocaine, a Na+ channel blocker, was added to suppress Na+ influx which contributes mostly to extracellular AP, as shown in FIG. 3D.
A Ca^2+ dysfunctional model was also built by treating the cardiomyocytes with isradipine, a Ca^2+ channel blocker used for treating a wide variety of cardiovascular disorders, as shown in FIG. 3G and its inset.
Cardiomyocytes were differentiated from human embryonic stem cells (hESCs, WAe009-A, H9) and human induced pluripotent stem cells (hiPSCs, generated from human primary T cells using episomal reprogramming) following methods described previously. Briefly, both cell types were maintained in the 60 mm tissue culture dishes coated with 10 ug/mL Matrigel in DMEM-F12 (Gibco™) using Essential 8 medium (Gibco™) and sub-passaged every 3-4 days. During differentiation, cells were seeded in a 12-well plate for 2-3 days until confluency, then replaced with RPMI 1640 medium (Gibco™) plus 1% B27-insulin (Gibco™) and 8 μM CHIR99021 (Tocris Bioscience™) (day 0). After 24 h (day 1), the medium was changed to RPMI 1640 plus 1% B27-insulin. On day 3, day 5, and day 7, the medium was changed to RPMI 1640 plus 1% B27-insulin and 5 μM IWR-1-endo (Cayman Chemical), RPMI 1640 plus 1% B27-insulin, and RPMI 1640 plus 1% B27, respectively. The medium was then replaced with RPMI 1640 plus 1% B27 every other day. […] During days 10-15, cardiomyocytes were ready for experiments. The cells were rinsed with 1×DPBS to remove calcium and inhibit contraction, then incubated with 0.5 mL of 0.5 mM Trypsin-EDTA (Gibco™) for 5 mins in a 37° C. incubator to dissociate into single cells. The EDTA was then aspirated, and the cells were dissociated by gently pipetting with 2 mL RPMI 1640 plus 1% B27 using a 1 ml pipet tip. The cells were transferred to a 15 mL conical tube and centrifuged at 250 g for 3 minutes, then resuspended with 2 mL RPMI 1640 plus 1% B27 supplemented with 10% Fetal Bovine Serum (Gibco™) and 10 μM Y-27632 ROCK inhibitor (Tocris Bioscience™). The device substrate integrated with nanotransistors was sterilized by incubating in 70% ethanol solution (1 h) at room temperature and then UV-treated (1 h). The device was coated with 20 μg/mL Matrigel in RPMI 1640 for 1 h at 37° C. Cells were seeded on the device substrate at the density of 3-5×10^5/cm^2. The cardiomyocytes were maintained using RPMI 1640 plus 1% B27 by changing the medium daily. Electrical recordings were typically performed starting from day 5 after the cell seeding.
All in vitro electrical recordings were carried out at the ambient environment with an Au reference electrode.

[1] = treatment, concentration not given

Structure (SMILES): Cc1cccc(CCN2CCC(C(=O)c3ccc(NS(C)(=O)=O)cc3)CC2)n1 [E-4031]
- contractile frequency and amplitude [1]: fluctuations in contractile frequency and amplitude

Structure (SMILES): Cc1ccc2c(c1)C(=O)C1(O)CCN(c3ccccc3)C1=N2 (centres unmarked) [blebbistatin]
- amplitude of AP: maintained the similar level
- amplitude of broad peaks (mechanical signal): substantial decrease
- broad peaks (mechanical signal) after washing out (washing out blebbistatin): restored the broad peaks

Structure (SMILES): COC(=O)C1=C(C)NC(C)=C(C(=O)OC(C)C)C1c1cccc2nonc12 (centres unmarked) [isradipine]
- AP (isradipine treatment, 20 nM): concurrent decrease
- mechanical signal (isradipine treatment, 20 nM): apparent suppression
- time to apparent suppression of mechanical signal (isradipine treatment, 20 nM): about 100 seconds
- mechanical and AP signals after washing out (washing out isradipine): restored both signals

Structure (SMILES): CCN(CC)CC(=O)Nc1c(C)cccc1C [lidocaine]
- amplitude of AP: prominent suppression
- amplitude of broad peaks (mechanical signal): no obvious effect
- AP amplitude (after lidocaine 20 μM, before ~10 nS): ~ 2 nS
- AP duration (after lidocaine 20 μM, before ~19 ms): ~ 40 ms

Structure (SMILES): NC[C@H](O)c1ccc(O)c(O)c1 [norepinephrine]
- conduction pathway [1]: alteration of the conduction pathway
- contractile frequency [1]: increased contractile frequency
